Key:
[1] = tested on: rat VEGF; experiment: Sandwich ELISA of VEGF secretion from endogenous cells after MCAo; type: in vivo; details: vs MCAo control group
Description: (§1) Male Wistar rats (n=32) were subjected to middle cerebral artery occlusion (MCAo) and were randomized with 8 rats in four treatment groups, with treatment initiated 1 day after stroke. Groups included: 1) phosphate buffered saline (PBS); 2) subtherapeutic DETA-NONOate (NN) at a dose of 0.4 mg/kg (IP); 3) subtherapeutic hMSCs (1×10^6 cells-iv); and 4) combination subtherapeutic NN and hMSCs. Functional outcome measurements consisted of a Neurologic Severity Scale (18 point scale) (NSS) and the Adhesive Removal Test performed prior to stroke, immediately before treatment and at 7 and 14 days after treatment. […] However, there was an overall hMSC effect on NSS at 14 days.
To obtain insight into the mechanisms associated with the induction of angiogenesis and neurogenesis, the fact that combination therapy induces the expression of neurotrophic and growth factors in brain was tested. Data are presented on the levels of vascular endothelial growth factor (VEGF) in brain after treatment with MSCs.

[2] = tested on: BrdU immunoreactive cells in dentate gyrus, SVZ and OB; experiment: Cell proliferation (BrdU) in non-ischemic aged rats; type: in vivo, rat; details: non-ischemic 18-month-old rats; DETA/NONOate 0.4 mg/kg daily 7 days; vs saline
Description: […] […] I.V bolus doses of DETA/NONOate (0.1 mg/kg each, every 15 min, and total dose of 0.4 mg/kg) on the first experimental day and DETA/NONOate (0.4 mg/kg) was administered (i.p) daily for an additional 6 consecutive days. Rats that received saline were used as a control group. Bromodeoxyuridine (BrdU) was used as mitotic labeling to measure cell proliferation. Animals received daily i.p injections of BrdU (50 mg/kg, Sigma) on the first experimental day and subsequently for 14 consecutive days. Rats were sacrificed at 14 and 42 days after the treatment. BrdU immunoreactive nuclei were counted on a computer monitor to improve visualization and in one focal plane to avoid over-sampling. Structures were sampled either by selecting predetermined areas on each section (OB) or by analyzing entire structures on each section (SVZ and dentate gyrus) (Zhang et al., 2001). All BrdU immunoreactive-positive nuclei in these areas are presented as the number of the BrdU immunoreactive cells/mm^2. Density for the selected several sections was averaged to obtain a mean density value for each animal (Zhang et al., 2001).
The question of whether this induction of neurogenesis by means of an NO donor in young adult (3-4 month old) rats would also be present in older rats was also tested. […]

[3] = tested on: rats subjected to middle cerebral artery occlusion (MCAo); experiment: Volume of cerebral infarction after MCAo, combination study; type: in vivo, rat; details: treatment 1 day after MCAo; NN 0.4 mg/kg IP, hMSCs 1×10^6 cells iv; no significant reduction vs PBS
Description: as §1
No significant reduction of volume of ischemic damage was detected in rats with hMSC (30.7±6.2%) or NONOate ([…]) and combination hMSCs with NONOate (28.7±6.7%) treatment, compared with control rats subjected to MCAo with PBS ([…]), hMSCs were identified immunohistochemically using an antibody specific for human chromosomes (MAB1281). Within the brain tissue, cells derived from hMSCs were characterized by MAB1281 staining. No MAB1281 positive cells were found in the non-hMSCs treated rats. MSCs identified by MAB1281 survived and were distributed throughout the damaged brain of recipient rats. […] The vast majority of MAB1281 positive hMSCs were located in the ischemic boundary zone.

[4] = tested on: rats subjected to middle cerebral artery occlusion (MCAo); experiment: Neurologic Severity Scale (NSS) after MCAo, combination study; type: in vivo, rat; details: treatment 1 day after stroke; NN 0.4 mg/kg IP, hMSCs 1×10^6 cells iv; vs control (PBS)
Description: as §1

[5] = Animal body weight loss after embolic MCA occlusion; type: in vivo, rat
Description: Male Wistar rats weighing 320 to 380 g were used in the present study. The middle cerebral artery (MCA) was occluded by placement of an embolus at the origin of the MCA. […] Ischemic rats (n=9) were treated with the same volume of tap water as a control group. Functional tests were performed and body weight was measured before ischemia and at 4, 7, 14, 21, and 28 days after onset of MCA occlusion. All rats were killed 28 days after MCA occlusion. […] These rats were killed 1 hour after the last treatment for measurements of brain levels of cGMP. […] Reverse transcription (RT)-polymerase chain reaction (PCR) was performed to detect PDE5 in brain tissue. Animals were weighed before and at 4, 7, 14, 21, and 28 days after embolic ischemia. Body weight loss is presented as a percentage of […] body weight.

[6] = cited from earlier work
[7] = tested on: nonischemic rats; experiment: Localized CBF by laser-Doppler flowmetry; type: in vivo, rat; details: sildenafil 2 mg/kg
Description: Ischemic rats (n=9) were treated with the same volume of tap water as a control group. Functional tests were performed and body weight was measured before ischemia and at 4, 7, 14, 21, and 28 days after onset of MCA occlusion. All rats were killed 28 days after MCA occlusion. […] These rats were killed 1 hour after the last treatment for measurements of brain levels of cGMP. […] Reverse transcription (RT)-polymerase chain reaction (PCR) was performed to detect PDE5 in brain tissue. Relative erythrocyte flow velocity was measured by laser-Doppler flowmetry (PeriFlux PF4 flowmeter; Perimed AB) in the tissue under the laser-Doppler flowmetry probe. 13 A burr hole 1.5 mm in diameter was drawn on the skull 2 mm posterior to the bregma and 6 mm lateral to midline. 13 The dura was left intact. After the application of mineral oil onto the burr hole, the probe was laced 0.5 mm above the dural surface. […] This measurement reflects relatively localized CBF. 14 Values of flow velocities are presented as a percentage of the contralateral hemispheric values.

With `NCCN(CCN)/[N+]([O-])=N/O` [DETANONOate, (Z)-1-[N-(2-aminoethyl)-N-(2-ammonioethyl)aminio]diazen-1-ium-1,2-diolate] the “VEGF secretion from endogenous cells (rat VEGF)” value [1] was “did not show a significant increase”, the “number of proliferating cells (dentate gyrus, SVZ, OB)” value [2] was “significantly increased the number of proliferating cells” and the “volume of ischemic damage” value [3] was 32.2±62%. For the same compound, the “NSS at 14 days” value [4] was “No significant difference”.

In the case of `CCCc1nn(C)c2c(=O)[nH]c(-c3cc(S(=O)(=O)N4CCN(C)CC4)ccc3OCC)nc12` [Sildenafil], the “% of Preischemic Body Weight” value ([5]; Sildenafil 2 mg/kg, 2 h, 4 d) is reported as 81.8 ± 2.3%, the “% of Preischemic Body Weight” value ([5]; Sildenafil 2 mg/kg, 2 h, 7 d) is reported as 86.6 ± 2.5 % and the “% of Preischemic Body Weight” value ([5]; Sildenafil 2 mg/kg, 2 h, 14 d) is reported as 89.6 ± 4.7 %. The “% of Preischemic Body Weight” value ([5]; Sildenafil 2 mg/kg, 2 h, 21 d) was 98.2 ± 3.7 %, the “% of Preischemic Body Weight” value ([5]; Sildenafil 2 mg/kg, 2 h, 28 d) was 105.2 ± 3.0 % and the “% of Preischemic Body Weight” value ([5]; Sildenafil 2 mg/kg, 2 h group, Before Ischemia (baseline)) was 100%. The “% of Preischemic Body Weight” value ([5]; Sildenafil 2 mg/kg, 24 h, 4 d) was 86.9 ± 0.2%, the “% of Preischemic Body Weight” value ([5]; Sildenafil 2 mg/kg, 24 h, 7 d) was 84.9 ± 1.8 % and the “% of Preischemic Body Weight” value ([5]; Sildenafil 2 mg/kg, 24 h, 14 d) was 89.2 ± 2.6 %. For the same compound, the “% of Preischemic Body Weight” value ([5]; Sildenafil 2 mg/kg, 24 h, 21 d) was 99.5 ± 2.0 %, the “% of Preischemic Body Weight” value ([5]; Sildenafil 2 mg/kg, 24 h, 28 d) was 107.2 ± 2.5 % and the “% of Preischemic Body Weight” value ([5]; Sildenafil 2 mg/kg, 24 h group, Before Ischemia (baseline)) was 100%. For the same compound, the “% of Preischemic Body Weight” value ([5]; Sildenafil 5 mg/kg, 2 h, 4 d) was 84.6 ± 1.8%, the “% of Preischemic Body Weight” value ([5]; Sildenafil 5 mg/kg, 2 h, 7 d) was 81.8 ± 2.5 % and the “% of Preischemic Body Weight” value ([5]; Sildenafil 5 mg/kg, 2 h, 14 d) was 84.7 ± 3.9%. For the same compound, the “% of Preischemic Body Weight” value ([5]; Sildenafil 5 mg/kg, 2 h, 21 d) was 95.2 ± 3.5 %, the “% of Preischemic Body Weight” value ([5]; Sildenafil 5 mg/kg, 2 h, 28 d) was 101.3 ± 4.3% and the “% of Preischemic Body Weight” value ([5]; Sildenafil 5 mg/kg, 2 h group, Before Ischemia (baseline)) was 100%. The half-life in rats [6] was 24 min, the “duration of significantly increased localized CBF after administration” value [7] was 70 min and the “localized CBF levels” value ([7]; vs control rats) was “significantly increased localized CBF levels”.

Reference: patent US20120009152A1, “NITRIC OXIDE DONORS FOR TREATMENT OF DISEASE AND INJURY” (priority 2002, published 2012)
